Data reported in patent publication US20240270762A1, “PENICILLIN-BINDING PROTEIN INHIBITORS” (priority 2021, published 2024).
Converted amounts (≈) assume the structure as drawn.

Legend:
A. baumannii PBP2 = A. baumannii PBP2 (Acinetobacter baumannii, UniProt D0C8Z9); assay: Bocillin-FL competition binding via gel filtration, A. baumannii PBP2
Method: (§1) Affinity to A. baumannii PBP1a and PBP2 was assessed a competitive equilibrium binding assay using Bocillin-FL as the reporter molecule. Enzyme was pre-incubated with increasing concentrations of inhibitors, prior to addition of Bocillin and further incubation for 15 minutes. PBP bound with Bocillin-FL was separated by gel filtration using 96-well Zeba Spin size exclusion plates, and the fluorescence measured. The inhibitor affinity (reported as the EC50) was determined by plotting the fraction of PBP bound with Bocillin-FL at each inhibitor concentration against the inhibitor concentration, and fitting the data to the following equation:
(§2) [formula] • where y is the fraction bound at a given inhibitor concentration, ymin is the fraction bound when the enzyme is completely inactivated, ymax is the maximum (uninhibited) fraction bound, n is the Hill coefficient, and x is the inhibitor concentration.

[1] = system: B. thailandensis ATCC 700388; assay: microbe, parasite or virus in culture; format: cell-based; details: Burkholderia thailandensis, ATCC700388, read-out: Minimum inhibitory concentration (MIC), B. thailandensis ATCC 700388
[2] = system: B. humptydooensis ATCC BAA-2767; assay: microbe, parasite or virus in culture; format: cell-based; details: Burkholderia humptydooensis, ATCCBAA2767, read-out: Minimum inhibitory concentration (MIC), B. humptydooensis ATCC BAA-2767
A. baumannii PBP1a = target: T1, A. baumannii PBP1a (Acinetobacter baumannii, UniProt A0ABX6CK30); assay: Bocillin-FL competition binding via gel filtration, A. baumannii PBP1a; details: competition binding assay using Bocillin-FL via gel filtration; read-out: A. baumannii PBP1a Potency
T1 sequence (A0ABX6CK30 1-851): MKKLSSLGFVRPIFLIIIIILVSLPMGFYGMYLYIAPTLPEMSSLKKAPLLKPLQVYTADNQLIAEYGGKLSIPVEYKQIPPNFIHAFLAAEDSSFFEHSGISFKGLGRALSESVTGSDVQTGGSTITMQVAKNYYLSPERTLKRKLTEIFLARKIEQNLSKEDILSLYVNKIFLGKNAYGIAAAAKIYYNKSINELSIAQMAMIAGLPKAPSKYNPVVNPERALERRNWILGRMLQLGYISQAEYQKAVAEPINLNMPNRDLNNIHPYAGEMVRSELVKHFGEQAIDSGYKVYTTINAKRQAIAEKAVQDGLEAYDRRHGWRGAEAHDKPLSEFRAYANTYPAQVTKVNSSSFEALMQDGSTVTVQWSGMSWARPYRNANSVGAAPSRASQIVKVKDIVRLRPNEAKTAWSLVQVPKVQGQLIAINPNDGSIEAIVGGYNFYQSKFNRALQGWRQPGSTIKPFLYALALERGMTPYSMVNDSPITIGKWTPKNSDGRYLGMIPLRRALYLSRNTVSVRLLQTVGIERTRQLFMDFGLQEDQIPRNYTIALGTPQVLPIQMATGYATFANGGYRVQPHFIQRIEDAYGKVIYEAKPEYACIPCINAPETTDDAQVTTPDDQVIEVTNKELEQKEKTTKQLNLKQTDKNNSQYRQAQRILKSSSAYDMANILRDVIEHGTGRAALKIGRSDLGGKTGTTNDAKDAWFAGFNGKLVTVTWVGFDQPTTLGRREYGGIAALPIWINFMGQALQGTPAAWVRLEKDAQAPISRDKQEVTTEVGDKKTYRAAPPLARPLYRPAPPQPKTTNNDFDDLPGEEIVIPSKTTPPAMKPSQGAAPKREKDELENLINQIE
Method: as §1, §2

A. baumannii ATCC 19606 = assay: microbe, parasite or virus in culture; format: cell-based; details: Acinetobacter baumannii, ATCC19606, read-out: MIC, A. baumannii ATCC 19606
A. baumannii CDC-0045 = assay: microbe, parasite or virus in culture; format: cell-based; details: Acinetobacter baumannii, CDC0045, read-out: MIC, A. baumannii CDC-0045
P. aeruginosa CDC-0090 = assay: microbe, parasite or virus in culture; format: cell-based; details: Pseudomonas aeruginosa, CDC0090, read-out: Minimum inhibitory concentration, P. aeruginosa CDC-0090
[3] = system: P. aeruginosa (ΔmexAB-oprM); assay: Broth microdilution MIC in iron-depleted CAMHB (IDM); format: cell-based; details: Pseudomonas aeruginosa, read-out: Minimum inhibitory concentration, P. aeruginosa ΔmexAB-oprM
P. aeruginosa ATCC 27853 = assay: microbe, parasite or virus in culture; format: cell-based; details: Pseudomonas aeruginosa, ATCC27853, read-out: Minimum inhibitory concentration, P. aeruginosa ATCC 27853
A. baumannii CDC-0083 = assay: microbe, parasite or virus in culture; format: cell-based; details: Acinetobacter baumannii, CDC0083, read-out: MIC, A. baumannii CDC-0083
A. baumannii CDC-0033 = assay: microbe, parasite or virus in culture; format: cell-based; details: Acinetobacter baumannii, CDC0033, read-out: MIC, A. baumannii CDC-0033
P. aeruginosa CDC-0095 = assay: microbe, parasite or virus in culture; format: cell-based; details: Pseudomonas aeruginosa, CDC0095, read-out: Minimum inhibitory concentration, P. aeruginosa CDC-0095
P. aeruginosa CDC-0054 = assay: microbe, parasite or virus in culture; format: cell-based; details: Pseudomonas aeruginosa, CDC0054, read-out: Minimum inhibitory concentration, P. aeruginosa CDC-0054
[4] = target: T2, PBP3 from Acinetobacter baumannii (ATCC 19606) (Acinetobacter baumannii, UniProt A0ABX6CK25); assay: Bocillin-FL fluorescence polarization competition binding, A. baumannii PBP3; details: fluorescence polarization competition binding assay using Bocillin-FL; read-out: A. baumannii PBP3 Potency
T2 sequence (A0ABX6CK25 64-610): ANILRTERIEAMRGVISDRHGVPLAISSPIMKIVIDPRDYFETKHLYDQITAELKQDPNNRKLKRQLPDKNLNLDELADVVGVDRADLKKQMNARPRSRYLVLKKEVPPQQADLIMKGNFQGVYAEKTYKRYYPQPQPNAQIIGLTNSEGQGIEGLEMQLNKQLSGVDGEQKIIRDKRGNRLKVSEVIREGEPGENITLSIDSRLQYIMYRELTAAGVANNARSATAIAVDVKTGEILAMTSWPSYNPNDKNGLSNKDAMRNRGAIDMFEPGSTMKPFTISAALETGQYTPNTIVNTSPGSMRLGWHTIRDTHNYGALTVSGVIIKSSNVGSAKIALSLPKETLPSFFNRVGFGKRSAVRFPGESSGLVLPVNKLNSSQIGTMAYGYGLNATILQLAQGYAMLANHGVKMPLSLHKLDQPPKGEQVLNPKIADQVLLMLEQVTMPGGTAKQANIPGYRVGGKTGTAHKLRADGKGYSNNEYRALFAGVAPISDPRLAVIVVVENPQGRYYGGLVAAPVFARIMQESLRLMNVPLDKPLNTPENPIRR
From the text: (§3) To determine the ability of boronic acid-based test PBP inhibitors to bind Penicillin Binding Proteins (PBPs), Bocillin-FL (fluorescently-labeled penicillin V; ThermoFisher Scientific) was used in a fluorescence polarization (FP) competition binding assay to assess inhibitor binding to PBP3 from Escherichia coli (K-12), PBP3 from Pseudomonas aeruginosa (PAO1), PBP1a and PBP3 from Acinetobacter baumannii (ATCC 19606), and PBP2 from Neisseria gonorrhoeae (FA19). PBPs were cloned and purified as described previously (E. coli PBP3, King, D. T, et al., ACS Infectious Diseases 2015, 1, 175-184; P. aeruginosa PBP3, Han et. al., PNAS 2010, 107 (51), 22002-22007; A. baumannii PBPs, Penwell et. al., Antimicrob. Agents Chemother. 2015, 59 (3), 1680-1689; N. gonorrhoeae PBP2, Singh et. al., J. Biol. Chem. 2019, 294 (38), 14020-14032). To establish assay conditions for competition binding, enzyme titration/saturation binding experiments were initially performed. Bocillin-FL was prepared at 0.2 μM in a buffer comprised of 50 mM Hepes (pH 8.0), 300 mM NaCl and 10% (v/v) glycerol for reactions with E. coli, P. aeruginosa and N. gonorrhoeae PBPs, and 25 mM Tris (pH 8.0), 200 mM NaCl, 10% (v/v) glycerol and 0.005% (v/v) Tween 20 for reactions with A. baumannii PBPs. Saturation binding was performed by mixing 40 μl of PBP solutions ranging in concentrations from 0-24 μM with 40 μl of the 0.2 μM Bocillin-FL solution, in individual wells of a black 384-well microplate. FP was measured immediately upon mixing (Excitation, 490 nm; Emission, 520 nm; g-factor, 0.96), using a Cytation3 (BioTek) microplate reader and measured continuously for up to 120 minutes. The FP response stabilized after 15 minutes for P. aeruginosa and A. baumannii PBP3, 30 minutes for E. coli PBP3 and A. baumannii PBP1a, and less than 1 minute for N. gonorrhoeae PBP2. […] The competition binding assay (80 μl final volume) was validated using beta-lactams and PBPs at final concentrations of: 1.5 μM for E. coli PBP3; 0.75 μM for P. aeruginosa PBP3; 1 μM for A. baumannii PBP1a; 0.2 μM for A. baumannii PBP3; and 0.25 μM for N. gonorrhoeae PBP2. Bocillin-FL was at 0.1 μM (0.05 μM with A. baumannii PBP1a) and beta-lactam concentrations ranged from 0-1,000 μM. E. coli PBP3 was incubated with increasing concentrations of ampicillin in a black 384-well microplate (Corning) for 30 minutes. P. aeruginosa PBP3 was incubated for 15 minutes with aztreonam, whereas A. baumannii PBP1a and PBP3 were incubated for 15 minutes with meropenem, and then Bocillin-FL was added followed immediately by the FP measurement for up to 60 minutes. […] The beta-lactam potency was reported as the concentration of beta-lactam required to reduce the amount of PBP bound-Bocillin-FL by 50% (EC50). […] The EC50 of aztreonam was determined to be <0.5 μM for P. aeruginosa PBP3. […] Binding assays for boronic acid PBP inhibitors were performed in an identical fashion for the respective PBPs.

A. baumannii 1258916 = assay: microbe, parasite or virus in culture; format: cell-based, Acinetobacter baumannii; details: Acinetobacter baumannii, 1258916, read-out: MIC, A. baumannii 1258916
P. aeruginosa CDC-0110 = assay: microbe, parasite or virus in culture; format: cell-based; details: Pseudomonas aeruginosa, CDC0110, read-out: Minimum inhibitory concentration, P. aeruginosa CDC-0110
A. baumannii CDC-0036 = assay: microbe, parasite or virus in culture; format: cell-based; details: Acinetobacter baumannii, CDC0036, read-out: MIC, A. baumannii CDC-0036
P. aeruginosa ATCC 35151 = assay: microbe, parasite or virus in culture; format: cell-based; details: Pseudomonas aeruginosa, ATCC35151, read-out: Minimum inhibitory concentration, P. aeruginosa ATCC 35151
A. baumannii ATCC 17978 = assay: microbe, parasite or virus in culture; format: cell-based; details: Acinetobacter baumannii, ATCC17978, read-out: MIC, A. baumannii ATCC 17978
[5] = target: T3, PBP1a from Acinetobacter baumannii (ATCC 19606) (Acinetobacter baumannii, UniProt A0ABX6CK30); assay: Bocillin-FL fluorescence polarization competition binding, A. baumannii PBP1a
T3 sequence (A0ABX6CK30 1-851): T1 sequence (A0ABX6CK30 1-851)
From the text: as §3

Chain of A. baumannii PBP2 (D0C8Z9 whole entry): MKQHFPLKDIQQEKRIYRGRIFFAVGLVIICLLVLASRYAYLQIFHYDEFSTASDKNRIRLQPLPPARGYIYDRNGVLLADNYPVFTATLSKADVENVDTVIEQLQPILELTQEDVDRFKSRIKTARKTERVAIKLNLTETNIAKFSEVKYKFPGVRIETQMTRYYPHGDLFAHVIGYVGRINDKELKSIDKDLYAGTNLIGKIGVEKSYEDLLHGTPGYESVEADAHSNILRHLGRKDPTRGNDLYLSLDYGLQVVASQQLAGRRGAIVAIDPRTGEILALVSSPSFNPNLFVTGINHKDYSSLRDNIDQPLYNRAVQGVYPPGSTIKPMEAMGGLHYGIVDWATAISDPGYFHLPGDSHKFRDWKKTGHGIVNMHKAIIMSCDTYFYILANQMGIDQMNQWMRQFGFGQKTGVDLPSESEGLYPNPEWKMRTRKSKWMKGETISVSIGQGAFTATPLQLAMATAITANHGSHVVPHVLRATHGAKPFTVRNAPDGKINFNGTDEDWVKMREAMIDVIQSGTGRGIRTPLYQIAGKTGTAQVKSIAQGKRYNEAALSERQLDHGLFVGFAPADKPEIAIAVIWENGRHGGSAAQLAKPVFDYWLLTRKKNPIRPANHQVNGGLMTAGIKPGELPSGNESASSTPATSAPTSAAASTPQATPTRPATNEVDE

| Compound | EC50 (A. baumannii PBP2) [µM] | MIC [1] [µg/mL] | MIC [2] [µg/mL] | EC50 (A. baumannii PBP1a) [µM] | further results |
| --- | --- | --- | --- | --- | --- |
| O=C(O)c1c(F)ccc2c1OB(O)[C@@H](NC(=O)C(NC(=O)N1CCN(C3CCN(Cc4ccc(O)cc4F)CC3)C1=O)c1cc(F)c(O)c(O)c1Cl)C2 (single isomer, unassigned) [Example 611] | 10 to 50 | < 1 | < 1 | < 10 | – |
| O=C(O)c1c(F)ccc2c1OB(O)[C@@H](NC(=O)[C@@H](NC(=O)N1CCN(Cc3ccc(O)c(O)c3Cl)C(=O)C1=O)c1ccc(P(=O)(O)O)cc1)C2 (single isomer, unassigned) [Example 161] | – | < 1 | < 1 | – | MIC (A. baumannii ATCC 19606): < 1 µg/mL; MIC (A. baumannii CDC-0045): > 128 µg/mL; MIC (P. aeruginosa CDC-0090): > 128 µg/mL; MIC [3]: 2 to 4 µg/mL (≈ 2.72 to 5.44 µM); MIC (P. aeruginosa ATCC 27853): 2 to 4 µg/mL (≈ 2.72 to 5.44 µM); MIC (A. baumannii CDC-0083): 8 to 16 µg/mL (≈ 10.9 to 21.8 µM); MIC (A. baumannii CDC-0033): 8 to 16 µg/mL (≈ 10.9 to 21.8 µM); MIC (P. aeruginosa CDC-0095): < 1 µg/mL; MIC (P. aeruginosa CDC-0054): < 1 µg/mL; IC50 [4]: < 10 µM; MIC (A. baumannii 1258916): > 128 µg/mL; MIC (P. aeruginosa CDC-0110): < 1 µg/mL; MIC (A. baumannii CDC-0036): > 128 µg/mL; MIC (P. aeruginosa ATCC 35151): < 1 µg/mL; MIC (A. baumannii ATCC 17978): < 1 µg/mL |
| O=C(O)c1c(F)ccc2c1OB(O)[C@@H](NC(=O)[C@H](NC(=O)N1CCN(C3CCN(Cc4cc(O)cc(F)c4)CC3)C1=O)c1cc(F)c(O)c(O)c1Cl)C2 (single isomer, unassigned) [Example 607] | 10 to 50 | < 1 | < 1 | < 10 | – |
| C[C@@H](O)[C@H]1C(=O)N2C(C(=O)O)=C(S[C@@H]3CN[C@H](C(=O)N(C)C)C3)[C@H](C)[C@H]12 [meropenem, reference compound] | – | – | – | – | EC50 [5]: < 0.5 µM |
| O=C(O)c1c(F)ccc2c1OB(O)[C@@H](NC(=O)C(NC(=O)N1CCN(C3CCN(Cc4ccc(F)c(O)c4)CC3)C1=O)c1cc(F)c(O)c(O)c1Cl)C2 (single isomer, unassigned) [Example 606] | 10 to 50 | < 1 | < 1 | < 10 | – |
| NCc1cccc(CN2CCC(N3CCN(C(=O)N[C@@H](C(=O)N[C@H]4Cc5ccc(F)c(C(=O)O)c5OB4O)c4cc(F)c(O)c(O)c4Cl)C3=O)CC2)c1 (single isomer, unassigned) [Example 613] | 10 to 50 | < 1 | < 1 | 10 to 50 | – |
